Consider one compound from patent EP3134349B1 (priority 2014, dated 2015).

≈ marks a conversion by molar mass, not a printed value.

A short description of this data set: Water solubility by batch tests at room temperature (saturated solution, headspace GC). It counts as physicochemical. How it is done:
In particular, in a vial fully filled with distilled water, a volume of pure compound (alone or mixed) in an amount sufficient for obtaining a well detectable precipitate and thus a saturated solution was injected. In order to quantify the solubilized fraction of the compound, the saturated solution was analyzed through gas chromatography of the headspace.

`ClC(Cl)C(Cl)Cl` [1,1,2,2-TeCA, 1,1,2,2-Tetrachloroethane] yielded an Experimental solubility (pure compound in distilled water) of 2.99 ± 0.18 gL^-1. Besides, the solubility (thermodynamic from solid, mixture of the two compounds 50% V/V, distilled water, no unit printed in this row (other rows gL^-1), read-out: Mixture 50% V/V (experimental water solubility of the component)) was found to be 1470 ± 90 µg/mL (≈ 8.76 mM).
